Experimental data as given in ChEMBL document CHEMBL1201862, “PubChem BioAssay data set” (2004).
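A five-concentration, 48-hour dose response in 96-well plates underlies each endpoint, interpolated linearly between surrounding concentrations. GI50 = concentration required for 50% inhibition of growth.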 Calls of active or inactive are those of the source. Rule as the data show it: active = GI50 up to about 1.1 µM and inactive = higher.

Tests used:
Test in all cases: inhibition of tumour cell growth, NCI panel, 48 h
MCF7 = system: MCF7
BT-549 = system: BT-549
MDA-MB-435 = system: MDA-MB-435
SK-MEL-28 = system: SK-MEL-28
SN12C = system: SN12C
Malme-3M = system: Malme-3M
T47D = system: T47D
SK-OV-3 = system: SK-OV-3
KM12 = system: KM12
M14 = system: M14
MDA-MB-231 = system: MDA-MB-231
EKVX = system: EKVX
SF-295 = system: SF-295
IGROV-1 = system: IGROV-1
HOP-62 = system: HOP-62
SK-MEL-2 = system: SK-MEL-2
U-251 = system: U-251
OVCAR-5 = system: OVCAR-5
K562 = system: K562
MOLT-4 = system: MOLT-4

Measured: GI50

Cc1ccc(C(=O)C#Cc2cn(C3CC(O)C(CO)O3)c(=O)[nH]c2=O)cc1 (configuration not stated)
inactive: MCF7 47.6 µM | BT-549 > 100 µM | MDA-MB-435 > 100 µM | SK-MEL-28 > 100 µM | SN12C > 100 µM | Malme-3M 15.4 µM | T47D 23.6 µM | SK-OV-3 > 100 µM | KM12 > 100 µM | M14 53.1 µM | MDA-MB-231 > 100 µM | EKVX > 100 µM | SF-295 > 100 µM | IGROV-1 > 100 µM | HOP-62 > 100 µM | SK-MEL-2 > 100 µM | U-251 > 100 µM

CNN1C(=O)c2c(C)c(C)c(C#N)c(N)c2C1=O
inactive: MCF7 > 100 µM | BT-549 > 100 µM | OVCAR-5 > 100 µM | MDA-MB-435 > 100 µM | SK-MEL-28 > 100 µM | SN12C > 100 µM | Malme-3M > 100 µM | T47D > 100 µM | KM12 > 100 µM | M14 > 100 µM | MDA-MB-231 > 100 µM | EKVX > 100 µM | K562 > 100 µM | SF-295 > 100 µM | IGROV-1 > 100 µM | MOLT-4 > 100 µM | SK-MEL-2 > 100 µM | U-251 > 100 µM

C/C=C1/CN2CCC34c5ccccc5N(C)C23C2CC1C4(C(=O)OC)C(O)O2 (configuration not stated)
inactive: MCF7 > 100 µM | BT-549 > 100 µM | OVCAR-5 > 100 µM | MDA-MB-435 > 100 µM | SK-MEL-28 > 100 µM | SN12C > 100 µM | T47D > 100 µM | SK-OV-3 > 100 µM | KM12 > 100 µM | M14 > 100 µM | MDA-MB-231 > 100 µM | EKVX > 100 µM | K562 > 100 µM | SF-295 > 100 µM | IGROV-1 > 100 µM | HOP-62 > 100 µM | MOLT-4 > 100 µM | SK-MEL-2 > 100 µM | U-251 > 100 µM

CCCCOc1ccc(S(=O)(=O)N/C(=N\O)Nc2ccc(Cl)cc2)cc1
inactive: MCF7 13.3 µM | BT-549 13.4 µM | OVCAR-5 18.6 µM | MDA-MB-435 15.9 µM | SK-MEL-28 18.2 µM | SN12C 17.3 µM | Malme-3M 17.7 µM | T47D 6.64 µM | KM12 16.6 µM | M14 15.2 µM | MDA-MB-231 16.4 µM | EKVX 15.8 µM | K562 18.3 µM | SF-295 16.9 µM | HOP-62 17.9 µM | MOLT-4 10.8 µM | SK-MEL-2 16.3 µM | U-251 15.5 µM
